Measurements from publication PMC6263544, “Second-generation pterocarpanquinones: synthesis and antileishmanial activity” (The Journal of Venomous Animals and Toxins Including …, 2018).
Entries after “also recorded” stand apart in the source; their conditions may differ.

Legend:
[1] = system: L. amazonensis promastigotes; assay: Antipromastigote test, L. amazonensis; format: cell-based, Leishmania amazonensis; conditions: for IC50: Leishmania amazonensis, 72 h, resazurin, Mean ± SEM, read-out: L. amazonensis Promastigote IC50
Procedure: New cultures of promastigotes were obtained from infected Balb/C mice. […] A stock solution of the compounds was prepared at 50 mM in dimethylsulfoxide (Sigma Aldrich). The maximum solvent concentration used in the assays was 0.4% in a final volume per well of 200 μL. The cultures were initiated with 1.0 × 10^6 cells/ml and maintained at 26 °C for 72 h. Inhibition of parasitic growth was determined by cell viability indicator, resazurin [23], with excitation λ = 560 nm and emission λ = 590 nm or the number of parasites was then counted in a Neubauer chamber (experiments with L. braziliensis).

[2] = system: L. infantum promastigotes; assay: Antipromastigote test, L. infantum; format: cell-based, Leishmania infantum; conditions: for IC50: Leishmania infantum, 72 h, resazurin, Mean ± SEM, read-out: L. infantum Promastigote IC50
Procedure: Leishmania infantum (MHOM/MA67ITMAP263) parasites were isolated from female BALB/c mice infected and cultured at 26 °C in Schneider’s insect medium supplemented with 20% HIFCS, streptomycin at 100 μg/ml and penicillin at 100 U/ml. New cultures of promastigotes were obtained from infected Balb/C mice.
(§1) Leishmania promastigotes of three species were incubated in 96-well plates (Nunc, Roskilde, Denmark) under the conditions described above in either the absence or presence of different concentrations of pterocarpanquinones 2a-f (0-100 μM). A stock solution of the compounds was prepared at 50 mM in dimethylsulfoxide (Sigma Aldrich). The maximum solvent concentration used in the assays was 0.4% in a final volume per well of 200 μL. The cultures were initiated with 1.0 × 10^6 cells/ml and maintained at 26 °C for 72 h. Inhibition of parasitic growth was determined by cell viability indicator, resazurin [23], with excitation λ = 560 nm and emission λ = 590 nm or the number of parasites was then counted in a Neubauer chamber (experiments with L. braziliensis). The 50% inhibitory concentration (IC50) was determined by nonlinear regression analysis in the software GraphPad Prism 5.

[3] = system: promastigotes of L. infantum; assay: Measurement of reactive oxygen species (H2DCFDA); format: cell-based, Leishmania infantum; conditions: 1.25–5.0 μM; for ROS production, dependence on concentration: 4 h
Procedure: Intracellular ROS levels were measured in treated and untreated cells as described previously. Briefly, 1 × 10^7 promastigotes/mL of L. infantum were incubated in Schneider’s insect medium supplemented with 20% HIFCS at 26 °C with concentrations of pterocarpanquinones 2a-f ranging from 0 to 5 μM in the presence of 20 μM H2DCFDA (Molecular Probes, Eugene, OR, USA). The fluorescence was monitored at 1 h intervals for 4 h using 485 and 530 nm as excitation and emission wavelengths, respectively, using the spectrofluorometer Spectra Max Gemini XPS (Molecular Devices, Silicon Valley, CA, USA). Antimycin A 10 μM was used as positive control.

[4] = system: promastigotes of L. infantum; assay: Mitochondrial membrane potential (ΔΨm) test (rhodamine 123, flow cytometry); format: cell-based, Leishmania infantum; conditions: 4 h; for Δѱm index of variation (IV): Rh123, IV = (MT − MC)/MC, negative = depolarization, mean ± SD; for effect on ΔΨm (in words): rhodamine 123, flow cytometry
Procedure: To determine the effect of pterocarpanquinones 2a-f on the ΔΨm, promastigotes of L. infantum (5 × 10^6 cells/mL) were incubated in the presence of 0–5 μM of derivatives at 26 °C. After 4 h, the parasites were incubated for 15 min with 10 μg/mL rhodamine 123 (Rh123) (Sigma-Aldrich). Data acquisition of 10,000 events and analysis were performed using the flow cytometer FACSCalibur (Becton-Dickinson, Rutherford, NJ, USA). Alteration in ΔΨm was quantified using an index of variation (IV) obtained by the eq. IV = (MT − MC)/MC [24], where MT is the median of the fluorescence of Rh123 for treated parasites and MC is the median of the fluorescence of the control parasites. Negative IV values correspond to depolarization of the mitochondrial membrane. The FCCP (Carbonyl cyanide-p-Trifluoromethoxyphenylhydrazone) 20 μM was used as positive control.

[5] = system: L. braziliensis promastigotes; assay: Antipromastigote test, L. braziliensis; format: cell-based; conditions: for IC50: Leishmania braziliensis, 72 h, parasites counted in Neubauer chamber, Mean ± SEM, read-out: L. braziliensis Promastigote IC50
Procedure: L. braziliensis (MCAN/BR/98/R619) was routinely isolated from hamster lesions and maintained as promastigotes in Schneider’s insect medium containing 20% HIFCS and 100 μg/ml gentamicin (Schering-Plough). New cultures of promastigotes were obtained from an infected hamster.
as §1

[6] = system: intracellular amastigotes of L. braziliensis; assay: Antiamastigote test, L. braziliensis in golden hamster macrophages; format: cell-based; conditions: for L. braziliensis SI (Selective Index): CC50 in Macrophages/IC50 in intracellular amastigotes; for IC50: Leishmania braziliensis, Peritoneal macrophage, intracellular amastigotes in golden hamster peritoneal macrophages, 72 h, infection index, Mean ± SEM, read-out: L. braziliensis Amastigote IC50
Procedure: Macrophages of golden hamsters were used in assays against intracellular amastigotes of L. braziliensis due to the natural resistance of mice. Resident macrophages were obtained from the peritoneal cells of golden hamsters after a peritoneal injection of 10 mL of Dulbecco’s Modified Eagle’s medium (DMEM) (Sigma-Aldrich). The peritoneal macrophages were plated onto glass coverslips placed within the wells of a 24-well culture plate and incubated at 37 °C in 5% CO2 for 1 h. After removing the nonadherent cells, the monolayers were infected with stationary-phase L. braziliensis promastigotes at a 5:1 parasite/macrophage ratio for 4 h. The infected macrophages were washed and incubated with several pterocarpanquinone concentrations (0-25 μM) for 72 h. The monolayers were then stained with Giemsa, and at least 100 infected macrophages per sample were counted under optical microscopy.
(§2) The results were expressed as an infection index (% infected cells×number of amastigotes/total number of macrophages). The 50% inhibitory concentration (IC50) was determined by nonlinear regression analysis in the software GraphPad Prism 5.

[7] = Macrophage toxicity test (resazurin); format: cell-based, Swiss mice; conditions: mouse; peritoneal macrophages of Swiss mice, 72 h, resazurin, Mean ± SEM; read-out: Murine Macrophage CC50
Procedure: (§3) To evaluate the toxicity of pterocarpanquinones 2a-f, peritoneal macrophages of Swiss mice (2 × 10^6/mL) were incubated with pterocarpanquinones (1.25–100 μM) for 72 h at 37 °C/5% CO2. Viability was evaluated with resazurin assay as described for the antipromastigote test. The 50% cytotoxicity concentration (CC50) was determined by nonlinear regression analysis in the software GraphPad Prism 5.

[8] = system: intracellular amastigotes of L. infantum; assay: Antiamastigote test, L. infantum in mouse peritoneal macrophages; format: cell-based, Leishmania infantum; conditions: for IC50: Leishmania infantum, Peritoneal macrophage, intracellular amastigotes in mouse peritoneal macrophages, infection index, Mean ± SEM, read-out: L. infantum Amastigote IC50; for IC50 / activity against L. infantum amastigotes (in words): 72 h; for L. infantum SI (Selective Index): CC50 in Macrophages/IC50 in intracellular amastigotes; for activity against L. infantum amastigotes (in words): intracellular amastigotes
Procedure: (§4) For the test against intracellular amastigotes of L. amazonensis and L. infantum, resident peritoneal macrophages (swiss mouse) were plated in RPMI (Sigma-Aldrich) at 2 × 10^6/mL (0.4 mL/well) in Lab-Tek eight-chamber slides (Nunc, Roskilde, Denmark) and incubated at 37 °C in 5% CO2 for 1 h. Stationary-phase L. amazonensis and L. infantum promastigotes were added at respective parasite/macrophage ratios of 3:1 and 5:1 for 4 h. After washing three times, pterocarpanquinones 2a-f at various concentrations were added for 72 h. Next, the slides were stained using an Instant Prov hematological dye system (Newprov, Curitiba, Brazil). The number of amastigotes was determined by counting at least 100 macrophages per sample.
as §2

[9] = system: intracellular amastigotes of L. amazonensis; assay: Antiamastigote test, L. amazonensis in mouse peritoneal macrophages; format: cell-based, Leishmania amazonensis; conditions: for L. amazonensis SI (Selective Index): CC50 in Macrophages/IC50 in intracellular amastigotes; for IC50: Leishmania amazonensis, Peritoneal macrophage, intracellular amastigotes in mouse peritoneal macrophages, 72 h, infection index, Mean ± SEM, read-out: L. amazonensis Amastigote IC50
Procedure: as §4, §2

[10] = system: peritoneal macrophages of Swiss mice; assay: Macrophage toxicity test (resazurin); format: cell-based; conditions: peritoneal macrophages, CC50 77.7 μM vs 18.46 μM
Procedure: as §3

COc1ccc2c(c1)CC[C@@H]1C3=C(O[C@H]21)C(=O)c1ccccc1C3=O (relative stereo) [LQB 474 (2e)]
IC50 [1]: 0.5 ± 0.07 µM | IC50 [2]: 2.2 ± 0.3 µM | ROS production, dependence on concentration [3]: only increased ROS production when the parasite was incubated with the highest concentration of 5 μM | Δѱm index of variation (IV) ([4]; 1.25 μM): −0.582 ± 0.1 | Δѱm index of variation (IV) ([4]; 2.5 μM): −0.701 ± 0.01 | effect on ΔΨm (in words) [4]: greater depolarization | IC50 [5]: 12.3 ± 0.45 µM | L. braziliensis SI (Selective Index) [6]: 1.74 | IC50 [6]: 8.53 ± 1.12 µM | CC50 at 72 h [7]: 14.9 ± 1.43 µM | IC50 [8]: > 10 µM | L. amazonensis SI (Selective Index) [9]: 5.74 | IC50 [9]: 2.6 ± 0.8 µM

N=C(N)c1ccc(OCCCCCOc2ccc(C(=N)N)cc2)cc1 [Pentamidine, reference compound]
IC50 [1]: 4.8 ± 0.09 µM | IC50 [2]: 5.7 ± 0.12 µM | IC50 [5]: 13 ± 0.04 µM | L. braziliensis SI (Selective Index) [6]: 1.1 | IC50 [6]: 7.7 ± 2.4 µM | CC50 at 72 h [7]: 8.5 ± 1.25 µM | L. infantum SI (Selective Index) [8]: 21.25 | IC50 [8]: 0.4 ± 0.2 µM | L. amazonensis SI (Selective Index) [9]: 4.47 | IC50 [9]: 1.9 ± 0.1 µM

O=C1C2=C(C(=O)c3ccccc31)[C@H]1COc3cc4c(cc3[C@H]1O2)OCO4 [LQB 168 (2d)]
IC50 [1]: 1.37 ± 0.04 µM | IC50 [2]: 2 ± 0.4 µM | Δѱm index of variation (IV) ([4]; 1.25 μM): −0.369 ± 0.08 | Δѱm index of variation (IV) ([4]; 2.5 μM): −0.194 ± 0.18 | IC50 [5]: 28.2 ± 1.61 µM | L. braziliensis SI (Selective Index) [6]: 11.03 | IC50 [6]: 7.04 ± 2.29 µM | fold higher CC50 than LQB-118 (less cytotoxic) [10]: 4.2 fold | CC50 at 72 h [7]: 77.7 ± 1.1 µM | IC50 [8]: > 50 µM | activity against L. infantum amastigotes (in words) [8]: no significant activity | L. amazonensis SI (Selective Index) [9]: 172.6 | IC50 [9]: 0.45 ± 0.06 µM

O=C1C2=C(C(=O)c3ccccc31)[C@H]1CCc3ccccc3[C@H]1O2 (relative stereo) [LQB 187 (2a)]
IC50 [1]: 1.05 ± 0.21 µM | IC50 [2]: 1.2 ± 0.2 µM | Δѱm index of variation (IV) ([4]; 1.25 μM): −0.103 ± 0.16 | Δѱm index of variation (IV) ([4]; 2.5 μM): −0.368 ± 0.03 | IC50 [5]: 23.1 ± 1.63 µM | L. braziliensis SI (Selective Index) [6]: 5.0 | IC50 [6]: 9.85 ± 1.37 µM | CC50 at 72 h [7]: 49.3 ± 1.1 µM | IC50 [8]: > 25 µM | L. amazonensis SI (Selective Index) [9]: 54.7 | IC50 [9]: 0.9 ± 0.1 µM

COc1ccc2c(c1)[C@H]1OC3=C(C(=O)c4ccccc4C3=O)[C@H]1CC2 (relative stereo) [LQB 475 (2f)]
IC50 [1]: 0.4 ± 0.06 µM | IC50 [2]: 1.4 ± 0.7 µM | Δѱm index of variation (IV) ([4]; 1.25 μM): −0.668 ± 0.01 | Δѱm index of variation (IV) ([4]; 2.5 μM): −0.707 ± 0.01 | effect on ΔΨm (in words) [4]: greater depolarization | IC50 [5]: 10.5 ± 1.01 µM | L. braziliensis SI (Selective Index) [6]: 5.53 | IC50 [6]: 9.02 ± 1.64 µM | IC50 [8]: > 40 µM | L. amazonensis SI (Selective Index) [9]: 23.76 | IC50 [9]: 2.1 ± 0.4 µM

O=C1C2=C(C(=O)c3ccccc31)[C@H]1COc3ccccc3[C@H]1O2 [LQB 182 (2b)]
IC50 [1]: 1.08 ± 0.2 µM | improvement of activity, 2b in comparison to 1 ([1]; promastigotes of L. amazonensis): about 1.6 times | IC50 [2]: 1 ± 0.3 µM | improvement of activity, 2b in comparison to 1 ([2]; promastigotes of L. infantum): ~4 times | ROS production, dependence on concentration [3]: increased ROS generation dependent on compound concentration | Early ROS production after 4 h of treatment ([3]; compared with control, listed as 2b): induction of increased ROS production | Δѱm index of variation (IV) ([4]; 1.25 μM): −0.397 ± 0.07 | Δѱm index of variation (IV) ([4]; 2.5 μM): −0.402 ± 0.04 | IC50 [5]: 11 ± 1.25 µM | decrease in antileishmanial activity, 2b in comparison to 1 ([5]; promastigotes of L. braziliensis): 3.2 times | activity relative to deoxy derivative 2a ([5]; promastigotes of L. braziliensis, listed as 2b): approximately twice as active; also recorded: approximately two times more active | L. braziliensis SI (Selective Index) [6]: 2.15 | IC50 [6]: 7.84 ± 2.46 µM | CC50 at 72 h [7]: 16.9 ± 1.2 µM | L. infantum SI (Selective Index) [8]: 4.69 | IC50 [8]: 3.6 ± 0.9 µM | activity against L. infantum amastigotes (in words) [8]: the only one active | L. amazonensis SI (Selective Index) [9]: 19.8 | IC50 [9]: 0.85 ± 0.02 µM | improvement of activity, 2b in comparison to 1 ([9]; amastigotes of L. amazonensis): about 1.6 times
